Legend:
[1] = target: Carbonic anhydrase 5B, mitochondrial (Homo sapiens, UniProt Q9Y2D0)
[2] = target: Carbonic anhydrase 1 (Homo sapiens, UniProt P00915)
[3] = target: Carbonic anhydrase 5A, mitochondrial (Homo sapiens, UniProt P35218)
[4] = target: Carbonic anhydrase 2 (Homo sapiens, UniProt P00918)

Carbonic anhydrase 5B, mitochondrial, sequence (Q9Y2D0 whole entry): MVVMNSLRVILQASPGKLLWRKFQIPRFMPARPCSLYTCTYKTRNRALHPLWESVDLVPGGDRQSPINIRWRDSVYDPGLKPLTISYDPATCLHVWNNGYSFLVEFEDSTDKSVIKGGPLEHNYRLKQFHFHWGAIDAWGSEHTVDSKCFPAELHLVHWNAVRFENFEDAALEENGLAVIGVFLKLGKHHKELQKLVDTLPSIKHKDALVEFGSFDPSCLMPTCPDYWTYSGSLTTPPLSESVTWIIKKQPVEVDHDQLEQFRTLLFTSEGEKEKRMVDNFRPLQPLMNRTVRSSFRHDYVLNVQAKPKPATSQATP
Carbonic anhydrase 5A, mitochondrial, sequence (P35218 whole entry): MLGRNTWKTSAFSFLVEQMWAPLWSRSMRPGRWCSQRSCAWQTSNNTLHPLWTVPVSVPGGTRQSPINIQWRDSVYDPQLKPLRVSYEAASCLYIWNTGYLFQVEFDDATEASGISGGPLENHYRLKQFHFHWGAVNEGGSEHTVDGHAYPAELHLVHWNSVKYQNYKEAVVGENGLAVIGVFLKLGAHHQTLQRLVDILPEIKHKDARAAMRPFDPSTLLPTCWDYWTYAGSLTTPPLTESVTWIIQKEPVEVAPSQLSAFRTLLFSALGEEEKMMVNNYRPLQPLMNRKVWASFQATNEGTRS
Carbonic anhydrase 1, sequence (P00915 whole entry): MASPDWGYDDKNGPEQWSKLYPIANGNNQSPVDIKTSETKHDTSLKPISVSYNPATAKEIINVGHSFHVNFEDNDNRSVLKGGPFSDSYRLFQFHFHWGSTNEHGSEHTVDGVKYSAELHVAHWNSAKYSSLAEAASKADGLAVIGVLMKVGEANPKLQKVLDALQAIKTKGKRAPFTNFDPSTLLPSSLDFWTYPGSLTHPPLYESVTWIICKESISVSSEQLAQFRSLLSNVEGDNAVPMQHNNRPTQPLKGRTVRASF

Row | Structure (SMILES) | Ki [1] [µM] | Ki [2] [µM] | Ki [3] [µM] | Ki [4] [µM]
1 | CC1(C)C2CC[C@@]1(CS(=O)(=O)NCc1ccc(S(N)(=O)=O)cc1)C(=O)C2 | 0.0673 | 1.04 | 0.0275 | 2.46
2 | CC1(C)C2CC[C@]1(CS(=O)(=O)NCc1ccc(S(N)(=O)=O)cc1)C(=O)C2 | 0.0403 | 0.92 | 0.0166 | 1.56

From ChEMBL document CHEMBL1681677 (Bioorg Med Chem Lett, 2011)
